Converted amounts (≈) assume the structure as drawn.

Type in all cases: functional
The subject of experiment [1] is A549. The experiment is described as follows: Cytotoxicity against human A549 cells. To be noted: read-out: ED50 (the source's name).
For experiment [2], the system named is SK-OV-3. In words: Cytotoxicity against human SKOV3 cells. To be noted: read-out: ED50 (the source's name).
Experiment [3] relates to SK-MEL-2. In words: Cytotoxicity against human SK-MEL-2 cells. To be noted: read-out: ED50 (the source's name).
Experiment [4] has as its system XF498. The experiment is described as follows: Cytotoxicity against human XF498 cells. To be noted: read-out: ED50 (the source's name).
Experiment [5] relates to HCT-15. The experiment is described as follows: Cytotoxicity against human HCT15 cells. Particulars: read-out: ED50 (the source's name).
For experiment [6], the system named is Staphylococcus aureus. In words: Antibacterial activity against methicillin-resistant Staphylococcus aureus 003 after 18 hrs.
The subject of experiment [7] is Staphylococcus aureus. In words: Antibacterial activity against methicillin-resistant Staphylococcus aureus Y-80-12-1109 after 18 hrs.
In experiment [8] the test system is Staphylococcus aureus. The experiment is described as follows: Antibacterial activity against methicillin-resistant Staphylococcus aureus KIST1 after 18 hrs.
The subject of experiment [9] is Staphylococcus aureus. The experiment is described as follows: Antibacterial activity against methicillin-resistant Staphylococcus aureus KIST2 after 18 hrs.
The test system of experiment [10] is Staphylococcus aureus. In words: Antibacterial activity against methicillin-resistant Staphylococcus aureus KIST3 after 18 hrs.
Experiment [11] concerns Staphylococcus aureus. In words: Antibacterial activity against methicillin-resistant Staphylococcus aureus KIST4 after 18 hrs.
Experiment [12] relates to Staphylococcus aureus. The experiment is described as follows: Antibacterial activity against methicillin-resistant Staphylococcus aureus 004 after 18 hrs.
Experiment [13] deals with Staphylococcus aureus. The experiment is described as follows: Antibacterial activity against methicillin-resistant Staphylococcus aureus Y-80-12-1999 after 18 hrs.
Experiment [14] deals with Staphylococcus aureus. The experiment is described as follows: Antibacterial activity against methicillin-resistant Staphylococcus aureus Y-80-12-844 after 18 hrs.
Experiment [15] deals with Staphylococcus epidermidis. The experiment is described as follows: Antibacterial activity against ofloxacin-resistant Staphylococcus epidermidis 178 after 18 hrs.
Experiment [16] has as its system Staphylococcus epidermidis. The experiment is described as follows: Antibacterial activity against ofloxacin-resistant Staphylococcus epidermidis 291 after 18 hrs.

Take `COC(=O)NCCSSCCNC(=O)/C(Cc1ccc(O)c(Br)c1)=N/O` [PSAMMAPLIN D]: the EC50 in experiment [1] amounted to 0.8 µg/mL (≈ 1.72 µM); in experiment [2], 0.17 µg/mL (≈ 0.365 µM); in experiment [3], 0.2 µg/mL (≈ 0.429 µM); in experiment [4], 0.6 µg/mL (≈ 1.29 µM); in [5] it was 1.23 µg/mL (≈ 2.64 µM). The MIC in [6], in [7], in experiment [8], in [9], in experiment [10] and in experiment [11] was above 25 µg/mL throughout. Further, the minimum inhibitory concentration (MIC) in [12], in [13], in [14], in experiment [15] and in experiment [16] was above 25 µg/mL each time.

Turning to `COc1cccc2c1C(=O)c1c(O)c3c(c(O)c1C2=O)C[C@@](O)(C(=O)CO)C[C@@H]3O[C@H]1C[C@H](N)[C@H](O)[C@H](C)O1` [DOXORUBICIN], the EC50 in experiment [1] was determined as 0.04 µg/mL (≈ 0.0736 µM); in experiment [2], 0.15 µg/mL (≈ 0.276 µM); in experiment [3] it was 0.03 µg/mL (≈ 0.0552 µM); in experiment [4] it was 0.1 µg/mL (≈ 0.184 µM); in experiment [5] it was 0.09 µg/mL (≈ 0.166 µM).

In the case of `O=C(NCCSSCCNC(=O)/C(Cc1cc(Br)c(O)c(-c2cc(C/C(=N\O)C(=O)NCCSSCCNC(=O)/C(Cc3ccc(O)c(Br)c3)=N/O)cc(Br)c2O)c1)=N/O)/C(Cc1ccc(O)c(Br)c1)=N/O` [BISAPRASIN], the EC50 in [1] worked out at 3.4 µg/mL (≈ 2.56 µM); in experiment [2], 2.78 µg/mL (≈ 2.1 µM); in experiment [3], 2.94 µg/mL (≈ 2.22 µM); in [4], 2.44 µg/mL (≈ 1.84 µM); in experiment [5], 6 µg/mL (≈ 4.52 µM). Besides, the MIC (usually the smallest concentration in the dilution series that meets the test's criterion for growth inhibition) came to 12.5 µg/mL (≈ 9.42 µM) in [6]; 50 µg/mL (≈ 37.7 µM) in [7]; 12.5 µg/mL (≈ 9.42 µM) in experiment [8]; 6.3 µg/mL (≈ 4.75 µM) in experiment [9]; 6.3 µg/mL (≈ 4.75 µM) in experiment [10]; 6.3 µg/mL (≈ 4.75 µM) in experiment [11]. The MIC in experiment [12] came out at 6.3 µg/mL (≈ 4.75 µM); in experiment [13], 50 µg/mL (≈ 37.7 µM); in [14], 25 µg/mL (≈ 18.8 µM); in experiment [15], 6.3 µg/mL (≈ 4.75 µM); in [16] it was 12.5 µg/mL (≈ 9.42 µM).

Consider `O=C(NCCSSCCNC(=O)/C(Cc1ccc(O)c(Br)c1)=N/O)/C(Cc1ccc(O)c(Br)c1)=N/O` [PSAMMAPLIN A], for which the EC50 is 0.57 µg/mL (≈ 0.858 µM) in experiment [1]; 0.14 µg/mL (≈ 0.211 µM) in experiment [2]; 0.13 µg/mL (≈ 0.196 µM) in [3]; 0.57 µg/mL (≈ 0.858 µM) in [4]; 0.68 µg/mL (≈ 1.02 µM) in experiment [5].

In the case of `C[C@@H](O)[C@H]1C(=O)N2C(C(=O)O)=C(S[C@@H]3CN[C@H](C(=O)N(C)C)C3)[C@H](C)[C@H]12` [MEROPENEM], the MIC turned out to be 3.1 µg/mL (≈ 8.08 µM) in experiment [6]; 50 µg/mL (≈ 130 µM) in [7]; 25 µg/mL (≈ 65.2 µM) in [8]; 3.1 µg/mL (≈ 8.08 µM) in experiment [9]; 50 µg/mL (≈ 130 µM) in experiment [10]; 50 µg/mL (≈ 130 µM) in experiment [11]. Moreover, the MIC in experiment [12] turned out to be 3.1 µg/mL (≈ 8.08 µM); in [13] it was 50 µg/mL (≈ 130 µM); in [14], 50 µg/mL (≈ 130 µM); in experiment [15], 0.8 µg/mL (≈ 2.09 µM); in [16], 1.6 µg/mL (≈ 4.17 µM).

Turning to `O=C(NCCSSCCNC(=O)/C(Cc1ccc(Oc2cc(C/C(=N\O)C(=O)NCCSSCCNC(=O)/C(Cc3ccc(O)c(Br)c3)=N/O)cc(Br)c2O)c(Br)c1)=N/O)/C(Cc1ccc(O)c(Br)c1)=N/O` [BISPSAMMAPLIN A], the EC50 in experiment [1] came out at 1.53 µg/mL (≈ 1.15 µM); in experiment [2], 1.52 µg/mL (≈ 1.15 µM); in experiment [3] it was 1.02 µg/mL (≈ 0.769 µM); in experiment [4] it was 1.1 µg/mL (≈ 0.829 µM); in [5], 3.35 µg/mL (≈ 2.52 µM). Also, the MIC in experiment [6], in experiment [7], in [8], in experiment [9], in experiment [10] and in experiment [11] was above 50 µg/mL in each case. Also, the MIC in [12], in experiment [13], in experiment [14], in [15] and in experiment [16] was above 50 µg/mL throughout.

Regarding `O=C(NCCSSCCNC(=O)/C(Cc1cc(Br)c(O)c(Br)c1)=N/O)/C(Cc1ccc(O)c(Br)c1)=N/O`, the EC50 in experiment [1] was determined as 1.34 µg/mL (≈ 1.8 µM); in experiment [2], 1.38 µg/mL (≈ 1.86 µM); in [3] it was 0.9 µg/mL (≈ 1.21 µM); in [4], 0.92 µg/mL (≈ 1.24 µM); in [5], 3.31 µg/mL (≈ 4.45 µM). Also, the MIC in [6], in [7], in experiment [8], in experiment [9], in experiment [10] and in experiment [11] was 12.5 µg/mL (≈ 16.8 µM) throughout. Also, the MIC in [12] turned out to be 12.5 µg/mL (≈ 16.8 µM); in [13] it was 12.5 µg/mL (≈ 16.8 µM); in [14] it was 25 µg/mL (≈ 33.6 µM); in experiment [15] it was 3.2 µg/mL (≈ 4.31 µM); in [16] it was 3.2 µg/mL (≈ 4.31 µM).

As for `O=C(NCCSSSCCNC(=O)/C(Cc1ccc(O)c(Br)c1)=N/O)/C(Cc1ccc(O)c(Br)c1)=N/O`, the MIC in experiment [6] worked out at 3.1 µg/mL (≈ 4.45 µM); in [7] it was 6.3 µg/mL (≈ 9.05 µM); in experiment [8], 3.1 µg/mL (≈ 4.45 µM); in experiment [9], 3.1 µg/mL (≈ 4.45 µM); in experiment [10], 6.3 µg/mL (≈ 9.05 µM); in experiment [11], 3.1 µg/mL (≈ 4.45 µM). Besides, the MIC in experiment [12] is 3.1 µg/mL (≈ 4.45 µM); in [13], 6.3 µg/mL (≈ 9.05 µM); in [14] it was 25 µg/mL (≈ 35.9 µM); in experiment [15], 0.8 µg/mL (≈ 1.15 µM); in experiment [16], 0.8 µg/mL (≈ 1.15 µM).

The values are drawn from ChEMBL document CHEMBL1147252, “New bromotyrosine derivatives from an association of two sponges, Jaspis wondoensis and Poecillastra wondoensis” (2003).
